Assay results as given in ChEMBL document CHEMBL1201862, “PubChem BioAssay data set” (2004).
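How tested: cells in 96-well plates exposed to compound for 48 hours at five concentrations. GI50 marks 50% less growth.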 Active and inactive are the calls of the source. No stated cut-off is given here; in the data, active = GI50 up to about 1.1 µM and inactive = higher.

Key:
Test in all cases: NCI tumour cell line growth inhibition, 48 h
[1] = system: 786-0
[2] = system: A498
[3] = system: A549
[4] = system: ACHN
[5] = system: BT-549
[6] = system: CCRF-CEM
[7] = system: COLO 205
[8] = system: DU-145
[9] = system: HCT-15
[10] = system: HL-60
[11] = system: HOP-62
[12] = system: HOP-92
[13] = system: HT-29
[14] = system: K562
[15] = system: KM12
[16] = system: M14
[17] = system: MCF7
[18] = system: MDA-MB-435
[19] = system: MDA-N
[20] = system: MOLT-4
[21] = system: Malme-3M
[22] = system: NCI-H226
[23] = system: NCI-H23
[24] = system: NCI-H460
[25] = system: NCI/ADR-RES
[26] = system: OVCAR-3
[27] = system: OVCAR-5
[28] = system: OVCAR-8
[29] = system: PC-3
[30] = system: RPMI-8226
[31] = system: RXF 393
[32] = system: SF-268
[33] = system: SF-295
[34] = system: SF-539
[35] = system: SK-MEL-28
[36] = system: SN12C
[37] = system: SNB-19
[38] = system: SR
[39] = system: SW-620
[40] = system: T47D
[41] = system: TK-10
[42] = system: U-251
[43] = system: UACC-257
[44] = system: UO-31
[45] = system: CAKI-1
[46] = system: EKVX
[47] = system: HCC 2998
[48] = system: HCT-116
[49] = system: Hs-578T
[50] = system: IGROV-1
[51] = system: LOX IMVI
[52] = system: MDA-MB-231
[53] = system: NCI-H522
[54] = system: OVCAR-4
[55] = system: SK-MEL-2
[56] = system: SK-MEL-5
[57] = system: SK-OV-3
[58] = system: SNB-75
[59] = system: UACC-62

Cc1cc(C)c(N[S+]([O-])c2cccc(C(F)(F)F)c2)c(C)c1 (stereo not given)
GI50 [1]: > 100 µM (inactive)
GI50 [2]: > 100 µM (inactive)
GI50 [3]: > 100 µM (inactive)
GI50 [4]: > 100 µM (inactive)
GI50 [5]: > 100 µM (inactive)
GI50 [6]: > 100 µM (inactive)
GI50 [7]: > 100 µM (inactive)
GI50 [8]: > 100 µM (inactive)
GI50 [9]: > 100 µM
GI50 [10]: > 100 µM (inactive)
GI50 [11]: > 100 µM (inactive)
GI50 [12]: > 100 µM (inactive)
GI50 [13]: > 100 µM (inactive)
GI50 [14]: > 100 µM (inactive)
GI50 [15]: > 100 µM (inactive)
GI50 [16]: > 100 µM (inactive)
GI50 [17]: > 100 µM (inactive)
GI50 [18]: > 100 µM (inactive)
GI50 [19]: > 100 µM (inactive)
GI50 [20]: > 100 µM (inactive)
GI50 [21]: > 100 µM (inactive)
GI50 [22]: > 100 µM (inactive)
GI50 [23]: > 100 µM (inactive)
GI50 [24]: > 100 µM (inactive)
GI50 [25]: > 100 µM (inactive)
GI50 [26]: > 100 µM (inactive)
GI50 [27]: > 100 µM (inactive)
GI50 [28]: > 100 µM (inactive)
GI50 [29]: > 100 µM (inactive)
GI50 [30]: > 100 µM (inactive)
GI50 [31]: > 100 µM (inactive)
GI50 [32]: > 100 µM (inactive)
GI50 [33]: > 100 µM (inactive)
GI50 [34]: > 100 µM (inactive)
GI50 [35]: > 100 µM (inactive)
GI50 [36]: > 100 µM (inactive)
GI50 [37]: > 100 µM (inactive)
GI50 [38]: > 100 µM (inactive)
GI50 [39]: > 100 µM (inactive)
GI50 [40]: > 100 µM (inactive)
GI50 [41]: > 100 µM (inactive)
GI50 [42]: > 100 µM (inactive)
GI50 [43]: > 100 µM (inactive)
GI50 [44]: > 100 µM (inactive)

O=C(CCCN1CCC2(CC1)OC(=O)N(c1ccccc1)C2=O)c1ccccc1
GI50 [1]: > 100 µM (inactive)
GI50 [2]: > 100 µM (inactive)
GI50 [3]: > 100 µM (inactive)
GI50 [4]: > 100 µM (inactive)
GI50 [45]: > 100 µM (inactive)
GI50 [6]: > 100 µM (inactive)
GI50 [7]: > 100 µM (inactive)
GI50 [8]: > 100 µM (inactive)
GI50 [46]: > 100 µM (inactive)
GI50 [47]: > 100 µM (inactive)
GI50 [48]: > 100 µM (inactive)
GI50 [9]: > 100 µM
GI50 [10]: > 100 µM (inactive)
GI50 [11]: > 100 µM (inactive)
GI50 [12]: > 100 µM (inactive)
GI50 [13]: > 100 µM (inactive)
GI50 [49]: > 100 µM (inactive)
GI50 [50]: > 100 µM (inactive)
GI50 [14]: > 100 µM (inactive)
GI50 [15]: > 100 µM (inactive)
GI50 [51]: > 100 µM (inactive)
GI50 [16]: > 100 µM (inactive)
GI50 [17]: > 100 µM (inactive)
GI50 [52]: 35.5 µM (inactive)
GI50 [18]: > 100 µM (inactive)
GI50 [19]: > 100 µM (inactive)
GI50 [20]: > 100 µM (inactive)
GI50 [21]: > 100 µM (inactive)
GI50 [22]: > 100 µM (inactive)
GI50 [23]: > 100 µM (inactive)
GI50 [24]: > 100 µM (inactive)
GI50 [53]: > 100 µM (inactive)
GI50 [25]: > 100 µM (inactive)
GI50 [26]: > 100 µM (inactive)
GI50 [54]: > 100 µM (inactive)
GI50 [27]: > 100 µM (inactive)
GI50 [28]: > 100 µM (inactive)
GI50 [29]: > 100 µM (inactive)
GI50 [30]: > 100 µM (inactive)
GI50 [31]: > 100 µM (inactive)
GI50 [32]: > 100 µM (inactive)
GI50 [33]: > 100 µM (inactive)
GI50 [34]: > 100 µM (inactive)
GI50 [35]: > 100 µM (inactive)
GI50 [55]: > 100 µM (inactive)
GI50 [56]: > 100 µM (inactive)
GI50 [57]: > 100 µM (inactive)
GI50 [36]: > 100 µM (inactive)
GI50 [37]: > 100 µM (inactive)
GI50 [58]: > 100 µM (inactive)
GI50 [38]: > 100 µM (inactive)
GI50 [39]: > 100 µM (inactive)
GI50 [40]: > 100 µM (inactive)
GI50 [41]: > 100 µM (inactive)
GI50 [42]: > 100 µM (inactive)
GI50 [43]: > 100 µM (inactive)
GI50 [59]: > 100 µM (inactive)
GI50 [44]: 27.8 µM (inactive)

O=C(CNc1cccc(Cl)c1)Nn1c(-c2ccccc2)nc2ccccc2c1=O
GI50 [1]: 2.77 µM (inactive)
GI50 [2]: 19.5 µM (inactive)
GI50 [3]: 19.7 µM (inactive)
GI50 [4]: 13.6 µM (inactive)
GI50 [5]: 2.16 µM (inactive)
GI50 [6]: 1.58 µM (inactive)
GI50 [7]: 3.83 µM (inactive)
GI50 [8]: 16 µM (inactive)
GI50 [46]: 17.9 µM (inactive)
GI50 [47]: 10.4 µM (inactive)
GI50 [48]: 1.77 µM (inactive)
GI50 [10]: 2.95 µM (inactive)
GI50 [11]: 14.1 µM (inactive)
GI50 [12]: 2.31 µM (inactive)
GI50 [13]: 5.9 µM (inactive)
GI50 [49]: 19.2 µM (inactive)
GI50 [50]: 4.35 µM (inactive)
GI50 [14]: 2.66 µM (inactive)
GI50 [15]: 10.9 µM (inactive)
GI50 [51]: 1.21 µM (inactive)
GI50 [16]: 2.09 µM (inactive)
GI50 [17]: 2.04 µM (inactive)
GI50 [52]: 3.37 µM (inactive)
GI50 [18]: 4.2 µM (inactive)
GI50 [19]: 9.59 µM (inactive)
GI50 [20]: 1.35 µM (inactive)
GI50 [22]: 13.3 µM (inactive)
GI50 [23]: 2.4 µM (inactive)
GI50 [24]: 10.5 µM (inactive)
GI50 [53]: 1.42 µM (inactive)
GI50 [26]: 7.1 µM (inactive)
GI50 [54]: 3.58 µM (inactive)
GI50 [27]: 18.6 µM (inactive)
GI50 [28]: 4.34 µM (inactive)
GI50 [29]: 10.2 µM (inactive)
GI50 [30]: 10 µM (inactive)
GI50 [32]: 4.71 µM (inactive)
GI50 [33]: 14.1 µM (inactive)
GI50 [34]: 3.69 µM (inactive)
GI50 [35]: 8.02 µM (inactive)
GI50 [56]: 1.53 µM (inactive)
GI50 [57]: 10.8 µM (inactive)
GI50 [36]: 4.13 µM (inactive)
GI50 [37]: 15.7 µM (inactive)
GI50 [58]: 3.61 µM (inactive)
GI50 [38]: 4.6 µM (inactive)
GI50 [39]: 2.47 µM (inactive)
GI50 [41]: > 10 µM (inactive)
GI50 [42]: 1.74 µM (inactive)
GI50 [43]: 14 µM (inactive)
GI50 [59]: 1.69 µM (inactive)
GI50 [44]: 17.2 µM (inactive)

CN(C)c1ccc(/C=C2\N=C(N/N=C/c3ccccc3O)NC2=O)cc1
GI50 [2]: 25.1 µM (inactive)
GI50 [5]: 44.7 µM (inactive)
GI50 [7]: 31.3 µM (inactive)
GI50 [8]: 32.3 µM (inactive)
GI50 [47]: 36.9 µM (inactive)
GI50 [11]: 22.5 µM (inactive)
GI50 [12]: 24 µM (inactive)
GI50 [13]: 34.3 µM (inactive)
GI50 [49]: 68.9 µM (inactive)
GI50 [18]: 32.8 µM (inactive)
GI50 [19]: 39.1 µM (inactive)
GI50 [22]: 20.5 µM (inactive)
GI50 [27]: 49.9 µM (inactive)
GI50 [30]: 38.6 µM (inactive)
GI50 [31]: 23.9 µM (inactive)
GI50 [32]: 34.4 µM (inactive)
GI50 [35]: 25.1 µM (inactive)
GI50 [36]: 36.7 µM (inactive)
GI50 [37]: 41.9 µM (inactive)
GI50 [58]: 31.2 µM (inactive)
GI50 [41]: 25.6 µM (inactive)
